Data as given in patent US20250074920A1, “MACROCYCLIC COMPOUNDS AND USE AS KINASE INHIBITORS” (BLOSSOMHILL THERAPEUTICS, INC., priority 2022, published 2025).

Tests used:
Test in all cases: KINOMEscan kinase binding assay
EGFR(G719C) = conditions: at 1 μM
In short: (§1)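 qPCR read-out of kinase retained on ligand-coated streptavidin beads. Binding buffer: 20% SeaBlock, 0.17×PBS, 0.05% Tween 20, 6 mM DTT; 1 h RT with shaking. % Ctrl = (test − positive control)/(negative control − positive control)×100; lower values mean stronger binding.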

SRMS = conditions: at 1 μM
In short: as §1

ERBB3 = conditions: at 1 μM
In short: as §1

FGFR2 = conditions: at 1 μM
In short: as §1

PDGFRA = conditions: at 1 μM
In short: as §1

FRK = conditions: at 1 μM
In short: as §1

HCK = conditions: at 1 μM
In short: as §1

TXK = conditions: at 1 μM
In short: as §1

EPHA4 = conditions: at 1 μM
In short: (§2)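 We measured how much kinase stayed bound to an immobilized small-molecule ligand when test compound was present. Binding ran at room temperature for 1 h, and the kinase eluted from the beads was counted by qPCR. Lower % Ctrl indicated tighter compound binding.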

ROS1 = conditions: at 1 μM
In short: as §1

[1] = system: JAK2(JH1domain-catalytic); conditions: for % Ctrl: JAK2(JH1domain-catalytic), at 1 μM; for Kd: read-out: JAK2(JH1 domain-catalytic) Kd
In short: as §2

MUSK = conditions: at 1 μM
In short: as §1

MERTK = conditions: at 1 μM
In short: as §1

[2] = system: ABL1(H396P)-nonphosphorylated; conditions: at 1 μM
In short: as §1

EPHB2 = conditions: at 1 μM
In short: as §1

TNK2 = conditions: at 1 μM
In short: as §1

MET(M1250T) = conditions: at 1 μM
In short: as §1

LCK = conditions: at 1 μM
In short: as §1

FLT3(D835Y) = conditions: at 1 μM
In short: as §1

FLT3-autoinhibited = conditions: at 1 μM
In short: as §1

CSF1R = conditions: at 1 μM
In short: as §1

EGFR(G719S) = conditions: at 1 μM
In short: as §1

PYK2 = conditions: at 1 μM
In short: as §1

EPHB4 = conditions: at 1 μM
In short: as §1

[3] = system: JAK3(JH1domain-catalytic); conditions: for % Ctrl: JAK3(JH1domain-catalytic), at 1 μM; for Kd: read-out: JAK3(JH1 domain-catalytic) Kd
In short: as §2

RET(V804M) = conditions: at 1 μM
In short: as §1

ALK(L1196M) = conditions: at 1 μM
In short: as §1

IGF1R = conditions: at 1 μM
In short: as §1

INSR = conditions: at 1 μM
In short: as §1

FLT3(K663Q) = conditions: at 1 μM
In short: as §1

TRKA = conditions: at 1 μM
In short: as §1

FLT3(R834Q) = conditions: at 1 μM
In short: as §1

ALK(C1156Y) = conditions: at 1 μM
In short: as §1

EPHA2 = conditions: at 1 μM
In short: as §2

KIT-autoinhibited = conditions: at 1 μM
In short: as §1

[4] = system: ABL1(F3171)-phosphorylated; conditions: at 1 μM
In short: as §1

[5] = system: JAK1(JH1domain-catalytic); conditions: for % Ctrl: JAK1(JH1domain-catalytic), at 1 μM; for Kd: read-out: JAK1(JH1 domain-catalytic) Kd
In short: as §2

[6] = system: ABL1(F317L)-nonphosphorylated; conditions: at 1 μM
In short: as §1

EGFR(T790M) = conditions: at 1 μM
In short: as §1

FYN = conditions: at 1 μM
In short: as §1

## Cc1cc2c([nH]1)/C=C1\C(=O)Nc3ccc(cc31)-c1c(nn(C)c1C)OCCCN(C)C2=O [Cpd. 1, [3a(4)Z]-6,9,15,16-tetramethyl-9,10,11,12-tetrahydro-15H-1,17-(ethanediylidene)pyrazolo[4,3-n]dipyrrolo[3,2-g:3′,4′-j][1,5]oxazacyclopentadecine-3,8(2H,5H)-dione]
EGFR(G719C)
  % Ctrl: 81%
SRMS
  % Ctrl: 93%
ERBB3
  % Ctrl: 100%
FGFR2
  % Ctrl: 96%
PDGFRA
  % Ctrl: 87%
FRK
  % Ctrl: 93%
HCK
  % Ctrl: 93%
TXK
  % Ctrl: 100%
EPHA4
  % Ctrl: 96%
ROS1
  % Ctrl: 91%
[1]
  % Ctrl: 98%
  Kd: > 10 µM
MUSK
  % Ctrl: 93%
MERTK
  % Ctrl: 78%
[2]
  % Ctrl: 87%
EPHB2
  % Ctrl: 97%
TNK2
  % Ctrl: 100%
MET(M1250T)
  % Ctrl: 83%
LCK
  % Ctrl: 95%
FLT3(D835Y)
  % Ctrl: 97%
FLT3-autoinhibited
  % Ctrl: 92%
CSF1R
  % Ctrl: 98%
EGFR(G719S)
  % Ctrl: 80%
PYK2
  % Ctrl: 100%
EPHB4
  % Ctrl: 86%
[3]
  % Ctrl: 81%
  Kd: > 10 µM
RET(V804M)
  % Ctrl: 100%
ALK(L1196M)
  % Ctrl: 89%
IGF1R
  % Ctrl: 100%
INSR
  % Ctrl: 95%
FLT3(K663Q)
  % Ctrl: 80%
TRKA
  % Ctrl: 67%
FLT3(R834Q)
  % Ctrl: 97%
ALK(C1156Y)
  % Ctrl: 100%
EPHA2
  % Ctrl: 97%
KIT-autoinhibited
  % Ctrl: 81%
[4]
  % Ctrl: 64%
[5]
  % Ctrl: 82%
  Kd: > 10 µM
[6]
  % Ctrl: 83%
EGFR(T790M)
  % Ctrl: 88%
FYN
  % Ctrl: 91%

## Cc1cc2c([nH]1)/C=C1\C(=O)Nc3ccc(cc31)-c1c(nn(C)c1C)COCCN(C)C2=O [Cpd. 2, [3a(4)Z]-6,9,15,16-tetramethyl-10,11,13,15-tetrahydro-2H-1,17-(ethanediylidene)pyrazolo[4,3-m]dipyrrolo[3,2-f:3′,4′-i][1,4]oxazacyclopentadecine-3,8(5H,9H)-dione]
EGFR(G719C)
  % Ctrl: 80%
SRMS
  % Ctrl: 90%
ERBB3
  % Ctrl: 100%
FGFR2
  % Ctrl: 85%
PDGFRA
  % Ctrl: 73%
FRK
  % Ctrl: 98%
HCK
  % Ctrl: 100%
TXK
  % Ctrl: 100%
EPHA4
  % Ctrl: 100%
ROS1
  % Ctrl: 97%
[1]
  % Ctrl: 91%
  Kd: 2.3 µM
MUSK
  % Ctrl: 100%
MERTK
  % Ctrl: 100%
[2]
  % Ctrl: 35%
EPHB2
  % Ctrl: 97%
TNK2
  % Ctrl: 89%
MET(M1250T)
  % Ctrl: 98%
LCK
  % Ctrl: 100%
FLT3(D835Y)
  % Ctrl: 36%
FLT3-autoinhibited
  % Ctrl: 83%
CSF1R
  % Ctrl: 82%
EGFR(G719S)
  % Ctrl: 77%
PYK2
  % Ctrl: 100%
EPHB4
  % Ctrl: 100%
[3]
  % Ctrl: 49%
  Kd: 0.51 µM
RET(V804M)
  % Ctrl: 77%
ALK(L1196M)
  % Ctrl: 94%
IGF1R
  % Ctrl: 88%
INSR
  % Ctrl: 100%
FLT3(K663Q)
  % Ctrl: 47%
TRKA
  % Ctrl: 20%
FLT3(R834Q)
  % Ctrl: 50%
ALK(C1156Y)
  % Ctrl: 93%
EPHA2
  % Ctrl: 85%
KIT-autoinhibited
  % Ctrl: 100%
[4]
  % Ctrl: 98%
[5]
  % Ctrl: 100%
  Kd: > 10 µM
[6]
  % Ctrl: 87%
EGFR(T790M)
  % Ctrl: 85%
FYN
  % Ctrl: 100%

## Cc1cc2c([nH]1)/C=C1\C(=O)Nc3c(Cl)cc(cc31)-c1cn(C)nc1COC[C@@H](C)NC2=O [Cpd. 3, [3a(4)Z,10R]-20-chloro-6,10,15-trimethyl-10,11,13,15-tetrahydro-2H-1,17-(ethanediylidene)pyrazolo[4,3-m]dipyrrolo[3,2-f:3′,4′-i][1,4]oxazacyclopentadecine-3,8(5H,9H)-dione]
EGFR(G719C)
  % Ctrl: 100%
SRMS
  % Ctrl: 69%
ERBB3
  % Ctrl: 74%
FGFR2
  % Ctrl: 90%
PDGFRA
  % Ctrl: 92%
FRK
  % Ctrl: 97%
HCK
  % Ctrl: 100%
TXK
  % Ctrl: 91%
EPHA4
  % Ctrl: 92%
ROS1
  % Ctrl: 62%
[1]
  % Ctrl: 93%
  Kd: > 10 µM
MUSK
  % Ctrl: 98%
MERTK
  % Ctrl: 98%
[2]
  % Ctrl: 100%
EPHB2
  % Ctrl: 99%
TNK2
  % Ctrl: 97%
MET(M1250T)
  % Ctrl: 100%
LCK
  % Ctrl: 87%
FLT3(D835Y)
  % Ctrl: 81%
FLT3-autoinhibited
  % Ctrl: 93%
CSF1R
  % Ctrl: 100%
EGFR(G719S)
  % Ctrl: 100%
PYK2
  % Ctrl: 94%
EPHB4
  % Ctrl: 97%
[3]
  % Ctrl: 70%
  Kd: 7.7 µM
RET(V804M)
  % Ctrl: 100%
ALK(L1196M)
  % Ctrl: 94%
IGF1R
  % Ctrl: 95%
INSR
  % Ctrl: 78%
FLT3(K663Q)
  % Ctrl: 100%
TRKA
  % Ctrl: 61%
FLT3(R834Q)
  % Ctrl: 100%
ALK(C1156Y)
  % Ctrl: 89%
EPHA2
  % Ctrl: 93%
KIT-autoinhibited
  % Ctrl: 87%
[4]
  % Ctrl: 97%
[5]
  % Ctrl: 100%
  Kd: > 10 µM
[6]
  % Ctrl: 95%
EGFR(T790M)
  % Ctrl: 87%
FYN
  % Ctrl: 100%

## C[C@@H]1COCc2nn(C)cc2-c2cc(Cl)c3c(c2)/C(=C/c2[nH]ccc2C(=O)N1)C(=O)N3 [Cpd. 4, [3a(4)Z,10R]-20-chloro-10,15-dimethyl-10,11,13,15-tetrahydro-2H-1,17-(ethanediylidene)pyrazolo[4,3-m]dipyrrolo[3,2-f:3′,4′-i][1,4]oxazacyclopentadecine-3,8(5H,9H)-dione]
EGFR(G719C)
  % Ctrl: 93%
SRMS
  % Ctrl: 68%
ERBB3
  % Ctrl: 76%
FGFR2
  % Ctrl: 99%
PDGFRA
  % Ctrl: 96%
FRK
  % Ctrl: 78%
HCK
  % Ctrl: 100%
TXK
  % Ctrl: 78%
EPHA4
  % Ctrl: 92%
ROS1
  % Ctrl: 68%
[1]
  % Ctrl: 57%
  Kd: 1.8 µM
MUSK
  % Ctrl: 98%
MERTK
  % Ctrl: 48%
[2]
  % Ctrl: 82%
EPHB2
  % Ctrl: 96%
TNK2
  % Ctrl: 100%
MET(M1250T)
  % Ctrl: 100%
LCK
  % Ctrl: 88%
FLT3(D835Y)
  % Ctrl: 96%
FLT3-autoinhibited
  % Ctrl: 93%
CSF1R
  % Ctrl: 92%
EGFR(G719S)
  % Ctrl: 96%
PYK2
  % Ctrl: 92%
EPHB4
  % Ctrl: 98%
[3]
  % Ctrl: 12%
  Kd: 0.059 µM
RET(V804M)
  % Ctrl: 90%
ALK(L1196M)
  % Ctrl: 94%
IGF1R
  % Ctrl: 94%
INSR
  % Ctrl: 81%
FLT3(K663Q)
  % Ctrl: 90%
TRKA
  % Ctrl: 59%
FLT3(R834Q)
  % Ctrl: 100%
ALK(C1156Y)
  % Ctrl: 100%
EPHA2
  % Ctrl: 96%
KIT-autoinhibited
  % Ctrl: 82%
[4]
  % Ctrl: 98%
[5]
  % Ctrl: 94%
  Kd: > 10 µM
[6]
  % Ctrl: 96%
EGFR(T790M)
  % Ctrl: 90%
FYN
  % Ctrl: 93%
